{"source": "patent US12428370B2", "about": "“Haloallylamine dual amine oxidase inhibitors” (Syntara Limited, priority 2020, dated 2025)", "key": {"[1]": {"molecular_target": "T1, human recombinant SSAO/VAP-1 (Homo sapiens, UniProt Q16853)", "T1 construct": "a cloned cDNA template corresponding to residues 34-763 of human SSAO/VAP-1; TEV cleavage site (N); made in house", "T1 sequence (Q16853 34-763)": "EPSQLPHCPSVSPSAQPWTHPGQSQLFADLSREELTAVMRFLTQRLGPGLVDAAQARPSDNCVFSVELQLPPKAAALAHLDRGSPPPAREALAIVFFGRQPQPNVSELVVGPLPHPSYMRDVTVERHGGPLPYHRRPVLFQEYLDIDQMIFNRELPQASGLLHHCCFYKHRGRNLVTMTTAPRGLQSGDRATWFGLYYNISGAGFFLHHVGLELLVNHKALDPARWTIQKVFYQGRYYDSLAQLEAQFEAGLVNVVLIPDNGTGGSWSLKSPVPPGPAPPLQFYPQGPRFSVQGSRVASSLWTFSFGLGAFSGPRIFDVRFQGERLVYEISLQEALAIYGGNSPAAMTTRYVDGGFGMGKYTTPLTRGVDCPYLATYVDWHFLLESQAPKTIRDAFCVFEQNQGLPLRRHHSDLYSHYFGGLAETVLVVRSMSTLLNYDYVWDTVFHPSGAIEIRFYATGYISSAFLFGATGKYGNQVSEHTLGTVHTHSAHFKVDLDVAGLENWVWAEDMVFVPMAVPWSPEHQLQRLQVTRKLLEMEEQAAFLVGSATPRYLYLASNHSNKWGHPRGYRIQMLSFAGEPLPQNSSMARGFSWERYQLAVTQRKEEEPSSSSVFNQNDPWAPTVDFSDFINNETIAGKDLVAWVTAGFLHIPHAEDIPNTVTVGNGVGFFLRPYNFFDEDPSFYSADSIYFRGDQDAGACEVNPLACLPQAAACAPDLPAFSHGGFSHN", "assay": "Inhibition of human recombinant SSAO/VAP-1 (Amplex Red fluorometric assay)", "format": "biochemical", "details": "30 min incubation, 37° C., benzylamine substrate", "description": "Method to Determine the Ability of Compounds of Formula I to Inhibit Human Recombinant SSAO/VAP-1\nHuman recombinant SSAO/VAP-1 amine oxidase activity was determined using the method as described for monoamine oxidase, copper-containing amine oxidases and related enzymes (Holt A. and Palcic M., Nat. Protoc. 2006, 1, 2498-2505). Briefly, a cloned cDNA template corresponding to residues 34-763 of human SSAO/VAP-1, and incorporating a mouse Ig kappa (κ) signal sequence, N-terminal flag epitope tag and tobacco etch virus (TEV) cleavage site, was assembled in a mammalian expression vector (pLO-CMV) by Geneart AG. This vector containing human SSAO/VAP-1 residues was transfected into CHO-K1 glycosylation mutant cell line, Lec 8. A clone stably expressing human SSAO/VAP-1 was isolated and cultured in large scale. Active human SSAO/VAP-1 was purified and recovered using immunoaffinity chromatography. This was used as the source for SSAO/VAP-1 activity. A high-throughput colorimetric assay was developed using either 96 or 384 well format. Briefly, in a standard 96 well plate assay 50 μL of purified human SSAO/VAP-1 (0.25 μg/mL) in 0.1 M sodium phosphate buffer (pH 7.4) was added into each well. […] After 30 min incubation, 50 μL of the reaction mixture containing 600 μM benzylamine (Sigma Aldrich), 120 μM Amplex Red (Sigma Aldrich) and 1.5 U/mL horseradish peroxidase (Sigma Aldrich) prepared in 0.1 M sodium phosphate buffer (pH 7.4) were added to the corresponding well. The fluorescence unit (RFU) was read every 2.5 min for 30 min at 37° C. excitation 565 nm and emission 590 nm (Optima; BMG labtech). The slope of the kinetics for each well was calculated using MARS data analysis software (BMG labtech) and this value was used to deduce the IC50 value (Dotmatics)."}, "[2]": {"molecular_target": "T2, Muscle and Heart Tissue MAO-B (Mus musculus, UniProt Q8BW75)", "T2 construct": "Skeletal muscle was pulverized in liquid nitrogen and then suspended in ice-cold HEPES buffered media; from tissue; host or cells: skeletal muscle and heart of C57BL/6J and mdx mice (mitochondrial extract)", "T2 sequence (Q8BW75 1-520)": "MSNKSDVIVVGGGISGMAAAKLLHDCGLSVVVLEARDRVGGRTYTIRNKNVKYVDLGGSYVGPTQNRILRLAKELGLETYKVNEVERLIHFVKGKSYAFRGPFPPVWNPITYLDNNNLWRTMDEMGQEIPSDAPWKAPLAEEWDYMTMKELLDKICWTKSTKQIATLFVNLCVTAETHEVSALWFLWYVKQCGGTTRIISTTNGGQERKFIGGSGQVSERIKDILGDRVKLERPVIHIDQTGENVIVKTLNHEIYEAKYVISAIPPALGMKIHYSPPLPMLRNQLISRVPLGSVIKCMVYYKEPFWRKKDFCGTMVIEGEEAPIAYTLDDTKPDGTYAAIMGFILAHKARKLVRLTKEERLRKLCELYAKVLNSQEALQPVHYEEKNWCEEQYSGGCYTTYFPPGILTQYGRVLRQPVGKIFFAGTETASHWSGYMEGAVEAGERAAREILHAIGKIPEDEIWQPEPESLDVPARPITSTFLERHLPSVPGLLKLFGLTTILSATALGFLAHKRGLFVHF", "assay": "Mouse muscle and heart tissue MAO-B activity after oral administration", "format": "in vivo", "details": "for MAO-B activity in heart and muscle tissue: C57BL/6J mice, single oral dose, FIG. 8", "description": "Mice were orally administered the compound under study and sacrificed at various time points and abdominal fat, muscle and heart tissue collected.\nSkeletal muscle was pulverized in liquid nitrogen and then suspended in ice-cold HEPES buffered media (20 mM HEPES, 0.8% w/v free-fatty acid bovine serum albumin (BSA), 75 mM sucrose, 10 mM EDTA, 215 mM D-mannitol, pH 7.4). Homogenized and then centrifuged at 2,500 rpm for 10 minutes at 4° C. Supernatant transferred and centrifuged at 10,000 rpm for 8 minutes. Supernatant discarded and the resultant pellet containing the mitochondrial extract re-suspended in 0.1 M sodium phosphate buffer solution (1:3 ratio).\nHeart muscle was washed with PBS solution three times over ice. Homogenate and extract was then prepared as described for the skeletal muscle.\nMAO-B activity was determined by using a specific MAO-A inhibitor (e.g. clorgyline) and an SSAO/VAP-1 inhibitor (e.g. semicarbazide) to establish the high signal. Low signal was established as for the adipose tissue assay (EXAMPLE 13).\nActivity of the treated samples was analyzed using the fluorometric method described in EXAMPLE 9 for SSAO/VAP-1 activity, EXAMPLE 10 for MAO-B and EXAMPLE 11 for MAO-A activity (FIG. 8 and FIG. 9)."}, "[3]": {"assay": "Stability of Compound 1 in a grape syrup formulation", "format": "physicochemical", "description": "Methylparahydroxybenzoate (126.2 mg), propylparahydroxybenzoate (20.0 mg), sodium phosphate monobasic (1%, 1.0 g) and saccharose (16.56 g) were dissolved in 100 mL purified water, vortexed for 10 min, followed by sonication for 30 min, and then filtered through a 0.45 μm filter. pH adjusted to pH 5 using 0.5 M NaOH. To 50 mL of the resultant solution was added grape flavor (LorAnnOils, 0180-0800; 1%, 0.5 mL), followed by 50 mg of Compound 1 to attain a final concentration of 1 mg/mL. Split into two 25 mL portions, one frozen, and one left at room temperature (rt) in a sealed falcon tube."}}, "data": [{"smiles": "N#Cc1ccc(OC/C(=C/F)CN)cc1", "note": "[Compound 1, (E)-4-((2-(aminomethyl)-3-fluoroallyl)oxy) benzonitrile]", "values": [{"measurement": "IC50", "setting": "[1]", "result": "< 10", "unit": "nM"}, {"measurement": "MAO-B activity in heart and muscle tissue", "setting": "[2]; 24-hour time point", "result": "inhibition of the enzyme activity is still evident"}, {"measurement": "MAO-B activity in heart and muscle tissue", "setting": "[2]; various doses, 4 hours after administration", "result": "dose-related reduction"}, {"measurement": "muscle MAO-B activity", "setting": "[2]; mdx mice (C57BL/10ScSn-Dmdmdx/J), oral, FIG. 10", "result": "completely inhibits"}, {"measurement": "degradation in grape syrup formulation", "setting": "[3]; 91 days at room temperature", "result": "no discernible degradation"}, {"measurement": "Purity of Compound 1 stored at rt for 91 days as measured by HPLC/area under the curve at 265 nm", "setting": "[3]; grape syrup formulation 1 mg/mL, pH 5, rt, 91 days", "result": 99.785, "unit": "%"}, {"measurement": "Purity of Compound 1 stored at −20° C. for 91 days as measured by HPLC/area under the curve at 265 nm", "setting": "[3]; grape syrup formulation 1 mg/mL, pH 5, −20° C., 91 days", "result": 99.781, "unit": "%"}]}]}
